In a melting point compilation (Tetko et al.; mined from patent text by program, amines drawn as free bases though some values may be those of a salt):

| Compound | melting point |
| --- | --- |
| Cn1ncc(C(=O)c2ccc(S(C)(=O)=O)c(C3=NC(C)(C)CO3)c2Cl)c1O | 132 to 135 °C |
| CC(=O)SCCC1(C)C(=O)N2CCCC(C(=O)O)N2C1=O (configuration not stated) | 142 to 143 °C |
| CN(C)CCOc1nc(NCc2cccs2)nc(Nc2cccc(C(F)(F)F)c2)n1 | 51 to 53 °C |
| CCOC(=O)c1cc2c(C)cccc2n1CCNC(=O)OC(C)(C)C | 93 to 94 °C |
| C[C@H]1C(=O)C[C@@H]2C[C@H]1OO[C@]2(C)/C=C\c1ccc(Cl)c(Cl)c1 | 135 °C |
| O=C1C=CC(=O)N1c1ccc([N+](=O)[O-])cc1 | 163 to 165 °C |
| NC(=O)N(O)CCOCc1ccsc1 | 99 to 100 °C |
| CS(=O)(=O)Nc1ccc(Cn2c(=S)n(Cc3ccc(OC(F)(F)F)cc3)c3ccccc32)cc1 | 167 to 170 °C |
| CC(=O)Nc1ccc2[nH]c(C(=O)N3CC(CCl)c4c3cc(N)c3ccccc43)cc2c1 (configuration not stated) | > 300 °C |
| Cc1cc(C)n(-c2cc(F)c(C#N)cc2F)n1 | 122 °C |
| Nc1nc(N)nc(CNc2c(Br)cc(Br)cc2Br)n1 | 250 to 251 °C |
| CC(C)c1cc2cc(O)ccc2c(Oc2ccc(/C=C/C(=O)O)cc2)c1-c1ccccc1 | 198 to 199 °C |
| CC(=O)OCC(=O)c1ccc(F)cc1F | 54 to 56 °C |
| CN1CCN(c2n[nH]c3ccc(Cl)cc23)CC1 | 172 to 174 °C |
| N#CCC(=O)NNC(=O)Nc1ccsc1CC(=O)Oc1ccc([N+](=O)[O-])cc1 | 132 to 135 °C |
| Cc1csc(C)c1S(=O)(=O)Cl | 79 °C |
| CCOC(=O)C(=CNC1CC1)C(=O)c1c(F)cc(F)c(F)c1C | 69 to 72 °C |
| C[C@@H](NC(=O)c1nc(-c2ccc(Cl)cc2)no1)[C@](O)(Cn1cncn1)c1ccc(F)cc1F | 170 to 172 °C |
| Cc1cc(C=C2SC(=S)NC2=O)cc2c1OCC(=O)N2Cc1ccc(CN2CCCCC2)cc1 | 277 to 278 °C |
| COc1ccc(CCc2ccc(NC(=O)C(=O)c3cccc(C(C)(C)C)c3O)cc2)cc1OC | 143 to 144 °C |
| CC(=O)Nc1cc(C)nn1C(C)(C)C | 118 to 120 °C |
| CS(=O)(=O)CCCCC(c1c(F)cccc1F)S(=O)(=O)c1ccc(Cl)cc1 (configuration not stated) | 118 to 119 °C |
| CC(C)(C)OC(=O)N[C@@H](Cc1ccc(Cl)cc1)C(=O)NC1CCC(Nc2cccc3c2C(=O)c2ccccc2C3=O)CC1 (some centres not stated) | 190 °C |

| Compound | melting point |
| --- | --- |
| CS(=O)(=O)c1ccc(C(CC2CCCC2)C(=O)Nc2ccc3ccccc3n2)cc1[N+](=O)[O-] (configuration not stated) | 102 to 106 °C |
| N#Cc1ccc(C2NCCS2)cc1 (configuration not stated) | 57 to 58 °C |
| N#Cc1c(N2CCN(C(=O)c3ccco3)CC2)c2cc(Cl)ccc2n(Cc2ccc(F)cc2)c1=O | 253 °C |
| Cn1ccnc1Sc1ccc(Nc2c(C#N)cnc3cc(/C=C/CCN4CCC(N5CCCC5)CC4)ccc23)cc1Cl | 214 to 216 °C |
| COc1ccc(C(=O)c2cccc([N+](=O)[O-])c2)cc1 | 88 to 89 °C |
| COc1cc2c(cc1Nc1ncc(Cl)c(Nc3ccccc3S(=O)(=O)N3CCCC3)n1)NC(=O)CN(CC1CC1)C2 | 142 °C |
| CC(=O)OCC1OC(n2cc(C(N)=S)nn2)C(OC(C)=O)C1OC(C)=O (configuration not stated) | 110 to 112 °C |
| CCCCCc1nc(-c2ncn3c2COC(=O)c2c(Cl)cccc2-3)no1 | 110 to 112 °C |
| CC(C)c1nc2cc(COc3ccc(CC4OC(=O)N(C(c5ccccc5)(c5ccccc5)c5ccccc5)C4=O)cc3)ccc2o1 (configuration not stated) | 123 to 125 °C |
| NS(=O)(=O)c1cc2cnc(CO)cc2o1 | 222 to 223 °C |
| COC(=O)c1nc(-c2ccc(Cl)c(OC)c2F)nc(O)c1Cl | 215 to 217 °C |
| CCCCN(CC)c1nc(C)nc2c1c(C)cn2-c1c(C)cc(CF)cc1C | 163 to 165 °C |
| Nc1ccc2c(c1Br)C(=O)CCC2 | 93 to 96 °C |
| CC(=O)Nc1ccc(C(=O)NCc2ccc(-n3c(-c4cccnc4N)nc4cc(C)cnc43)cc2)cc1 | 171 to 172 °C |
| COc1cc(Nc2ncc(C#N)c(-c3ccc(CO)cc3)n2)cc(OC)c1OC | 188 to 191 °C |
| Cn1cc([N+](=O)[O-])nc1CBr | 130 to 132 °C |
| Fc1c(F)c(F)c(CSc2nc3ccccc3s2)c(F)c1F | 51 to 53 °C |
| Cc1ccc(Nc2nc(-c3ccccc3)c(-c3nc4ccccc4c(=O)n3-c3ccc(Cl)cc3)s2)cc1 | 225 to 227 °C |
| O=C(OCC1c2ccccc2-c2ccccc21)N1CCC(n2nc(-c3ccccc3)[nH]c2=O)CC1 | 142 °C |
| O=C(O)c1ccc2c([N+](=O)[O-])cc3c(c2c1)C(CCl)CN3 (configuration not stated) | 205 to 208 °C |
| COc1ccc(NC(=O)C=NO)cc1C | 163 to 165 °C |
| CCCOc1ccc(S(=O)(=O)N2CC(CN(C)C)C2)cc1-c1nc2c([nH]1)c1nncn1c(=O)n2CCC | 172 °C |
| CNc1ccc(/C=C/C(=O)O)cn1 | 227 °C |

| Compound | melting point |
| --- | --- |
| CC(C)c1cc(C(C)C)c(CC(=O)NS(=O)(=O)Oc2c(C(C)C)cc(NS(=O)(=O)c3cccc4c(N(C)C)cccc34)cc2C(C)C)c(C(C)C)c1 | 103 to 105 °C |
| CC(CN1CCCC1)N1c2ccccc2Sc2ccc(C(=O)NCc3cccc(F)c3)cc21 (racemic) | 165 °C |
| Cc1noc(NS(=O)(=O)c2ccccc2-c2ccc(-c3ncco3)cc2C(O)c2ncc(-c3ccccc3)o2)c1C (configuration not stated) | 125 to 135 °C |
| COC(=O)c1c(Cl)nc2cc3c(cc2c1CCl)OCCO3 | 130 to 132 °C |
| Cc1cc(C)cc(-n2c(C=CC3CC(O)CC(O)O3)c(C(C)C)c3ccccc3c2=O)c1 (mixture of isomers) | 180 to 182 °C |
| CC(=NC(C#N)=C(N)C#N)c1ccco1 | 175 to 176 °C |
| Cc1ncnc(O)c1C | 120 to 121 °C |
| COC(=O)c1ccc(CSC)nc1C1=NC(C)(C(C)C)C(=O)N1 (configuration not stated) | 114 to 115 °C |
| CC(C)(C)OC(=O)N1CCC(CI)CC1 | 58 to 59 °C |
| Nc1ccc2c(c1)CCc1cc(=O)[nH]nc1-2 | 290 to 292 °C |
| CC(C)(O)CCn1c2ccccc2c2cc(NC(=O)c3ccccc3C(F)(F)F)ccc21 | 188 to 189 °C |
| C=C(C)CNc1cc(C(=O)O)cc(S(N)(=O)=O)c1Sc1ccc(NC(C)=O)cc1 | 193 to 195 °C |
| Cc1cc(O)c(C(C)(C)C)cc1C=O | 168 to 170 °C |
| COc1ccc2c(C(C)C(=O)OCCNC(=O)c3cccnc3)cccc2c1 (single isomer, unassigned; (+)) | 79 to 82 °C |
| Nc1ccc(NNC=O)cc1 | 122 to 125 °C |
| O=C(OCc1ccccc1)N1CCC(C(=O)O)(c2ccccc2)CC1 | 142 to 144 °C |
| CC1(C)[C@@H](Cn2nccn2)CC[C@@]1(C)NCC(=O)N1C[C@@H](F)C[C@H]1C#N | 84 to 87 °C |
| COc1cc(OC)nc(Oc2cccc(Cl)c2C(=O)Oc2ccc([N+](=O)[O-])cc2)n1 | 130 to 132 °C |
| CN1CCN(c2cc3c(cc2F)c(=O)c(C(=O)O)c2ccccn23)CC1 | 264 to 266 °C |
| CC(C)n1nc(-c2cnc(N)nc2-c2ccncc2)ccc1=O | 219 °C |
| CCOC(=O)c1ccc2c(=O)n3cc(C(=O)O)ccc3nc2c1 | 275 to 324 °C |

Now from value to molecule:

| melting point | Compound |
| --- | --- |
| 108 to 109 °C | COc1cc(COc2nn(C)cc2CO)ccc1OCc1nc(-c2ccccc2)oc1C |
| 120 to 122 °C | CCOC(=O)[C@H](Cc1ccc(N)cc1)NC(=O)c1ccccc1 |
| 230 °C | COc1ccc2cc(O)c(C(=O)Nc3ccccc3)cc2c1 |
| 114 to 115 °C | Fc1ccc(-n2ncnc2-c2ccncc2)cc1 |
| 37 to 38 °C | CC(=O)CCCCc1ccc(-c2ccccc2F)cc1 |
| 98 to 99 °C | Cc1cc(C(=O)C(C)N2CCC(O)(c3ccccc3)CC2)ccc1OCc1ccccc1 (configuration not stated) |
| 164 to 166 °C | CCCc1ccccc1OCC(O)COc1ccc2oc(C(=O)O)cc(=O)c2c1 (configuration not stated) |
| 110 to 112 °C | CC(=O)NC1CCN(c2cccc(Sc3ccccc3)n2)CC1 |
| 157 to 158 °C | NC(=O)N(O)CC=Cc1ccc(-c2ccccc2)o1 |
| 46 to 47 °C | c1ccc(Cc2ncc(-c3ccncc3)s2)cc1 |
| 44 to 47.5 °C | CCc1c(CC#N)ccc(OCc2ccccc2)c1OCc1ccccc1 |
| 291 to 293 °C | Cc1cccc(Nc2nc(-c3cc(-c4ccccc4)no3)cs2)n1 |
| 134 to 136 °C | N#Cc1cccnc1N1CCN(CC(=O)Nc2ccccc2[N+](=O)[O-])CC1 |
| 70 to 72 °C | O=C1NC(=O)C(Sc2ccccn2)=C1Sc1ccccn1 |
| 138 to 140 °C | COc1cc(OC)cc(-c2oc3ncnc(Cl)c3c2-c2ccccc2)c1 |
| 132 to 133 °C | CC(=O)Nc1ccc(F)c(-c2ccccn2)c1F |
| 190 to 192 °C | CNC(=O)[C@@H]1CC[C@H](C(=O)O)N1Cc1ccccc1 (relative stereo) |
| 77 to 78 °C | Clc1ccc(OCc2ccccc2)nn1 |
| 132 to 133 °C | COc1ccc(CCNc2nc(Cl)ccc2[N+](=O)[O-])cc1OC |
| 134 to 135 °C | Fc1ccccc1C(Cl)(c1ccccc1)c1ccccc1 |
| 165 to 167 °C | O=C(O)Cn1c(Cc2ccccc2)ccc(NS(=O)(=O)CCc2ccccc2)c1=O |
| 173 to 175 °C | COCc1c(C(C)=O)ncc2c1c1cc(OCc3ccccc3)ccc1n2S(=O)(=O)c1ccc(C)cc1 |
| 231 °C | CC(C)(C)OC(=O)N[C@@H](Cc1ccc(NC(=O)c2csc(NC(=O)NCc3ccccc3)n2)cc1)C(=O)O |
| 108 to 109 °C | Cc1c(C)n(CC2CCCCC2)c2c(OCc3ccc(F)cc3)nncc12 |
| 180 to 182 °C | CCCCOC(=O)Nc1ccnc(-c2ccncc2)n1 |
| 70 to 77 °C | O=C(O)CCCCc1ccc2ccccc2c1OCc1ccccc1 |
| 118 to 120 °C | COc1ccc(C(C)C)cc1-c1cc(-c2nnnn2CCc2ccccc2)c(OCc2ccccc2)cc1OCc1ccccc1 |
| 235 to 237 °C | O=C(O)CCCCN1CCN(C2=Nc3ccccc3Cc3ccccc32)CC1 |
| 149 to 150 °C | Cc1cc(Br)cnc1CCCCNc1ncc(Cc2ccc(Cl)cc2)c(=O)[nH]1 |
| 118 to 120 °C | Cc1cccc(Nc2ccccc2[N+](=O)[O-])c1C |
